# Values joined by “and” are separate entries in the source; they are usually repeats but may differ in a detail not shown here. Equal entries are not always repeated.
# Columns and labels:
# [1] = system: androgen-dependent reproductive organs; assay: Weight of androgen-dependent reproductive organs in rats, 14 days; assay type: in vivo, male rats; details: 30, 100 and 300 mg/kg/day po
# CYP 2C19 = CYP 2C19 (Homo sapiens, UniProt P33261); assay: CYP inhibition; assay type: in vitro ADME; details: concentrations up to 10 uM
# Dog pharmacokinetics = assay type: in vivo, male beagle dogs; details: multiple oral doses in dogs
# AR = target: T1, AR (Homo sapiens, UniProt P10275); assay type: cell-based
# T1 sequence (P10275 1-920): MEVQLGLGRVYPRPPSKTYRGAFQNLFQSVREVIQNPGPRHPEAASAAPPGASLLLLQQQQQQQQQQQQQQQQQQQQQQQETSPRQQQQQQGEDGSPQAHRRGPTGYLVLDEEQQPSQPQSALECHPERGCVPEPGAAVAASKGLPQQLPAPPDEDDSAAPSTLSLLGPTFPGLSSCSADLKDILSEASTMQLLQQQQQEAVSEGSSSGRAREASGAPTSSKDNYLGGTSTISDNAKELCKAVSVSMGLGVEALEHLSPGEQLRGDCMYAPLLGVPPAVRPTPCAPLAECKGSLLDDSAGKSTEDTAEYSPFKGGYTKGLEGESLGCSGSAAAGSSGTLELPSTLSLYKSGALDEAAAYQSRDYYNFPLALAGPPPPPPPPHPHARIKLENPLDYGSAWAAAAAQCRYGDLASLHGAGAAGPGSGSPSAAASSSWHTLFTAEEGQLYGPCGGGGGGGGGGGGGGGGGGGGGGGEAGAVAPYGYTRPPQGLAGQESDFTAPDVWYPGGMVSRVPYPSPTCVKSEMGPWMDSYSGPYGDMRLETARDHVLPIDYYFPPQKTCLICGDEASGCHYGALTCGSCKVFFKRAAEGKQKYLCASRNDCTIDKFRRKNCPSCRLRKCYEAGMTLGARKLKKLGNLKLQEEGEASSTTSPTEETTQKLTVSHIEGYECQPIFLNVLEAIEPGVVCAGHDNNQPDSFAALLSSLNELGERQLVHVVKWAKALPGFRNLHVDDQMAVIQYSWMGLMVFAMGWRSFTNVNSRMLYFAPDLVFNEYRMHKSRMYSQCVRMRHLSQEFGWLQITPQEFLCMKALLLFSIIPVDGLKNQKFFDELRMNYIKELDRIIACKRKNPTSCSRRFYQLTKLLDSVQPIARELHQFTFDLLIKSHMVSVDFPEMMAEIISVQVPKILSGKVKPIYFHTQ
# [2] = Brain and prostate distribution after single IV in rats; details: rat, in vivo, 2 mg/kg; for concentration at 30 min / concentration at 120 min: single IV 2 mg/kg
# [3] = Plasma protein binding by equilibrium dialysis, rat; assay type: in vitro ADME; details: Rats plasma, 1 uM, equilibrium dialysis 4h 37C
# [4] = system: AR-dependent PSA expression in prostate cancer cells LnCAP; assay: DHT-induced PSA expression in LnCAP cells; assay type: cell-based
# CYP 2C9 = CYP 2C9 (Homo sapiens, UniProt P11712); assay: CYP inhibition; assay type: in vitro ADME; details: concentrations up to 10 uM
# CYP 2D6 = CYP 2D6 (Homo sapiens, UniProt P10635); assay: CYP inhibition; assay type: in vitro ADME; details: concentrations up to 10 uM
# GABA receptors = assay: [3H]GABA binding, rat cerebral cortex membranes; details: 10uM
# CYP 3A4 = CYP 3A4 (Homo sapiens, UniProt P08684); assay: CYP inhibition; assay type: in vitro ADME; details: concentrations up to 10 uM
# CYP3A = CYP3A induction in human hepatocytes; assay type: in vitro ADME; details: for CYP 3A induction, Positive control, %: human hepatocytes, 48 hours, listed as ONC1-0013B
# [5] = Plasma protein binding by equilibrium dialysis, mouse; assay type: in vitro ADME; details: Mice plasma, 1 uM, equilibrium dialysis 4h 37C
# [6] = Plasma protein binding by equilibrium dialysis, dog; assay type: in vitro ADME; details: Dogs plasma, 1 uM, equilibrium dialysis 4h 37C
# Rat pharmacokinetics = details: for C24h: after 14 administrations; for AUC(0-inf) / k el / MRT inf / concentration at 24 h / Cmax / Tmax / half-life: male, Sprague Dawley, rat, in vivo
# LnCaP-Z2 tumors = assay: LnCaP-Z2 xenograft antitumor efficacy; assay type: in vivo, male CB17-SCID mice
# AR-LBD = target: T2, AR-LBD (Homo sapiens, UniProt P10275); assay: biochemical
# T2 sequence (P10275 669-900 limits assumed): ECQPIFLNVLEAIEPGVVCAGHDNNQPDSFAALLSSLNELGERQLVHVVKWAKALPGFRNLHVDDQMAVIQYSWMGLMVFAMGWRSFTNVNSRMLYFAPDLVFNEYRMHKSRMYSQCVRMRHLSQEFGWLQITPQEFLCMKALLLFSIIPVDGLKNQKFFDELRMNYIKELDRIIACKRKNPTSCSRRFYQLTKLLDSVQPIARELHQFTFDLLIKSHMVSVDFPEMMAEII
# [7] = Drug concentration in plasma and xenograft tumor after 21-day dosing; details: male, CB17-SCID, mouse, in vivo
# CYP 2D6, sequence (P10635 whole entry): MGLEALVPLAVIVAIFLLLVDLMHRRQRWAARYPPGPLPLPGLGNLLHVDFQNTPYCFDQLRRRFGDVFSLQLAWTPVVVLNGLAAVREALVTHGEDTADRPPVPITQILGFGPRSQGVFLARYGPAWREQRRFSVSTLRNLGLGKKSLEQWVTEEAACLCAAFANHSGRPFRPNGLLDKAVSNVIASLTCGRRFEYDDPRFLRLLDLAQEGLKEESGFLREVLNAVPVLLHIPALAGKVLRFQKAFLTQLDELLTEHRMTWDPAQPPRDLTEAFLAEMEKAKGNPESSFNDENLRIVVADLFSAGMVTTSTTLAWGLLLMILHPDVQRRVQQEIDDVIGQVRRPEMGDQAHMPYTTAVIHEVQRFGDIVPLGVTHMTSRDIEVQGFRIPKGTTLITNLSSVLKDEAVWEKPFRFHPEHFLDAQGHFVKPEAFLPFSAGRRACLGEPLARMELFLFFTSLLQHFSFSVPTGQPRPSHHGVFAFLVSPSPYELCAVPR
# CYP 2C9, sequence (P11712 whole entry): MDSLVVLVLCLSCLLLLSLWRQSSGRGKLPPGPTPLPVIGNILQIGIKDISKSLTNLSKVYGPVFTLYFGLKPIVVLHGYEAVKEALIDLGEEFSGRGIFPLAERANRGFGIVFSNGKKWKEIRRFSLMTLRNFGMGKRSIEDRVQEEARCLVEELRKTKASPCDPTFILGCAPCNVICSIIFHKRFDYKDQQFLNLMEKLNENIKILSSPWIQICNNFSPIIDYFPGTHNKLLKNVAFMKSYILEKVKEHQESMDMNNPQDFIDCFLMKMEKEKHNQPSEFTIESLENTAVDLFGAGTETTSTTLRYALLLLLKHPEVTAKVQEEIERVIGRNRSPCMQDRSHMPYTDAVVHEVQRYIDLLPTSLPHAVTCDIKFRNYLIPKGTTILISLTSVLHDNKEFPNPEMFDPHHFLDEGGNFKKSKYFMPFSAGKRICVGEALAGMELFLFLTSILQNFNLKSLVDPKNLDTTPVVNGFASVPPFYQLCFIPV
# CYP 2C19, sequence (P33261 whole entry): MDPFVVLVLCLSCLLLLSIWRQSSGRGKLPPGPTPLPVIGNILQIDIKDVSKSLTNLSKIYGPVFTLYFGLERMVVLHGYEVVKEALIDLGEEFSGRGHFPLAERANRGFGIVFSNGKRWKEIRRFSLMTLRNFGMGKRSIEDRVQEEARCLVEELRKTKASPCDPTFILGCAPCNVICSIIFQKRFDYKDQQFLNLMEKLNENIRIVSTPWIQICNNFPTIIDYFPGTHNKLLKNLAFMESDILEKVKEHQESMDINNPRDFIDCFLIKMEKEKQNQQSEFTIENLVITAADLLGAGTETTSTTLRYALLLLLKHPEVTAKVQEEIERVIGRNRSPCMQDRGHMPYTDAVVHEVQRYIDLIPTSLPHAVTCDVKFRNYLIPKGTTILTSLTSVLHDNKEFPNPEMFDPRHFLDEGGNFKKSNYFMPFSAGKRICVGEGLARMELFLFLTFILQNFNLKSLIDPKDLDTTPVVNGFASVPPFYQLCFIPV
# CYP 3A4, sequence (P08684 whole entry): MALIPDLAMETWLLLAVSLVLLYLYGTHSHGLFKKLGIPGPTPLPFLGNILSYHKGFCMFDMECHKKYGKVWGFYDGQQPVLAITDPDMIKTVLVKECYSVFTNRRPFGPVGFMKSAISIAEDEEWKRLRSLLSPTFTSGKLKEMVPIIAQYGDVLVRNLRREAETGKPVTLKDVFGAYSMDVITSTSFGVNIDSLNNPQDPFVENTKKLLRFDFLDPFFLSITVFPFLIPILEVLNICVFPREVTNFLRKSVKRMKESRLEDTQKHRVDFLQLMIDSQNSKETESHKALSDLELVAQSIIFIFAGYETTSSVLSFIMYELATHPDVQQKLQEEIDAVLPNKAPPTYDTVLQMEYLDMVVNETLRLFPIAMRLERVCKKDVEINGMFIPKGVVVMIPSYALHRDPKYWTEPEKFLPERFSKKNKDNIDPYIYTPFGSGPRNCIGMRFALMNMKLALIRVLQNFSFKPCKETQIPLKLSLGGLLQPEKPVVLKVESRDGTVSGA
structure (smiles),measurement,setting,value
"CNC(=O)c1ccc(N2C(=S)N(c3ccc(C#N)c(C(F)(F)F)c3)C(=O)[C@]23CCOC3)cc1F [ONC1-13B, 4-[(R)-3-(4-Cyano-3-trifluoromethyl-phenyl)-4-oxo-2-thioxo-7-oxa-1,3-diaza-spiro[4.4]non-1-yl]-2-fluoro-N-methyl-benzamide]","weight of prostate, epididymis and seminal vesicles, in words",[1],significantly and dose-dependently decreases
same,inhibition of CYP 2C19 activity,CYP 2C19,doesn`t inhibit
same,steady-state reached after,Dog pharmacokinetics,10 administrations
same,"inhibition of 6a-Fluotestosterone induced AR nuclear translocation, in words",AR,completely inhibit
same,Kp,[2],1.2 to 1.6
same,Kp at 30 min,[2],1.55 ± 0.08
same,Kp at 120 min,[2],1.2 ± 0.36
same,concentration at 30 min,[2]; Prostate,1160 ± 164 ng/g
same,concentration at 120 min,[2]; Prostate,625 ± 108 ng/g
same,concentration at 30 min,[2]; brain,145 ± 22 ng/g
same,concentration at 120 min,[2]; brain,89 ± 10 ng/g
same,concentration at 30 min,[2]; plasma,746 ± 104 ng/mL
same,concentration at 120 min,[2]; plasma,522 ± 57 ng/mL
same,Bound fraction,[3],89.7%
same,fold more efficient than bicalutamide in inhibiting DHT-induced PSA expression,[4],around 10 fold
same,inhibition of CYP 2C9 activity,CYP 2C9,doesn`t inhibit
same,inhibition of CYP 2D6 activity,CYP 2D6,doesn`t inhibit
same,inhibition of [3H]GABA specific binding,GABA receptors,42%
same,inhibition of CYP 3A4 activity,CYP 3A4,doesn`t inhibit
same,"CYP3A induction, in words",CYP3A; 1uM,no activity
same,"CYP 3A induction, Positive control, %",CYP3A; 1 uM,0.0±2.0% and 3.3±0.6%
same,fold less potent in CYP3A induction compared to MDV3100 and ARN-509,CYP3A; 10uM,~ 2 fold
same,"CYP 3A induction, Positive control, %",CYP3A; 10 uM,51.3±3.5% and 42.0±6.1%
same,Bound fraction,[5],90.7%
same,Bound fraction,[6],89.5%
same,C24h,Rat pharmacokinetics; Multiple PO 100 mg/kg,2 794 ng/mL
same,C24h,Rat pharmacokinetics; Multiple PO 300 mg/kg,2 122 ng/mL
same,Vss_obs,Rat pharmacokinetics; Single IV 1 mg/kg,2.0 L/kg
same,Сl,Rat pharmacokinetics; Single IV 1 mg/kg,6.4 mL/min/kg
same,AUC(0-inf),"Rat pharmacokinetics; iv, 1 mg/kg",2.57 µg·h/mL
same,k el,"Rat pharmacokinetics; iv, 1 mg/kg",4.64e-05 s⁻¹
same,MRT inf,"Rat pharmacokinetics; po, 5 mg/kg",7 h
same,concentration at 24 h,"Rat pharmacokinetics; po, 5 mg/kg",51 ng/mL
same,k el,"Rat pharmacokinetics; po, 5 mg/kg",3.61e-05 s⁻¹
same,AUC(0-inf),"Rat pharmacokinetics; po, 30 mg/kg",95 µg·h/mL
same,Cmax,"Rat pharmacokinetics; po, 30 mg/kg",7160 ng/mL
same,MRT inf,"Rat pharmacokinetics; po, 30 mg/kg",4 h
same,Tmax,"Rat pharmacokinetics; po, 30 mg/kg",4 h
same,concentration at 24 h,"Rat pharmacokinetics; po, 30 mg/kg",159 ng/mL
same,half-life,"Rat pharmacokinetics; po, 30 mg/kg",4 h
same,k el,"Rat pharmacokinetics; po, 30 mg/kg",5.28e-05 s⁻¹
same,AUC(0-inf),"Rat pharmacokinetics; po, 100 mg/kg",268 µg·h/mL
same,Cmax,"Rat pharmacokinetics; po, 100 mg/kg",16400 ng/mL
same,MRT inf,"Rat pharmacokinetics; po, 100 mg/kg",10 h
same,Tmax,"Rat pharmacokinetics; po, 100 mg/kg",4 h
same,half-life,"Rat pharmacokinetics; po, 100 mg/kg",8 h
same,k el,"Rat pharmacokinetics; po, 100 mg/kg",2.5e-05 s⁻¹
same,AUC(0-inf),"Rat pharmacokinetics; po, 300 mg/kg",314 µg·h/mL
same,Cmax,"Rat pharmacokinetics; po, 300 mg/kg",20500 ng/mL
same,MRT inf,"Rat pharmacokinetics; po, 300 mg/kg",7 h
same,Tmax,"Rat pharmacokinetics; po, 300 mg/kg",4 h
same,half-life,"Rat pharmacokinetics; po, 300 mg/kg",6 h
same,k el,"Rat pharmacokinetics; po, 300 mg/kg",3.06e-05 s⁻¹
same,"antitumor efficacy, in words",LnCaP-Z2 tumors; 20 mg/kg twice daily,highest antitumor efficacy
same,tumors regressed,"LnCaP-Z2 tumors; 20 mg/kg twice daily po, 21 days",4 of 8
same,"antitumor efficacy, in words","LnCaP-Z2 tumors; once daily at 20 or 50 mg/kg, vs MDV3100 10mg/kg once daily",comparable to MDV3100
same,IC50,AR-LBD,19.9 µM
same,Kp at 24 h,[7]; 20 mg/kg,0.78 ± 0.08
same,concentration at 24 h,[7]; 20 mg/kg,76.2 ng/mL and 52.6 ng/g
same,Kp at 24 h,[7]; 50 mg/kg,0.77 ± 0.13
same,concentration at 24 h,[7]; 50 mg/kg,154 ng/mL and 138 ng/g
same,Kp at 16 h,"[7]; po, 20 mg/kg",0.72 ± 0.05
same,concentration at 16 h,"[7]; po, 20 mg/kg",456 ng/mL and 442 ng/g

# From PMC3909768 (Journal of Cancer, 2014)
